Source: US6972288B1, “4-amino-quinazoline and quinoline derivatives having an inhibitory effect on signal transduction mediated by tyrosine kinases” (Boehringer Ingelheim Pharma KG, priority 1999, dated 2005)

What was measured:
[1] = target: T1, human EGF-R (Homo sapiens, UniProt P00533); experiment: Inhibition of EGF-dependent proliferation of F/L-HERc cells (Cell Titer 96 AQueous assay); type: cell-based; conditions: F/L-HERc cells (murine IL-3-dependent line expressing human EGF-R), stimulated with EGF 20 ng/ml, 48 hours at 37° C.
T1 construct: expressed in transfected cells; host or cells: F/L-HERc cells, derived from the murine IL-3-dependent line FDC-P1 ('FDC-PI' [sic]); retroviral vector LXSN, packaging line GP+E86
T1 sequence (P00533 25-1210): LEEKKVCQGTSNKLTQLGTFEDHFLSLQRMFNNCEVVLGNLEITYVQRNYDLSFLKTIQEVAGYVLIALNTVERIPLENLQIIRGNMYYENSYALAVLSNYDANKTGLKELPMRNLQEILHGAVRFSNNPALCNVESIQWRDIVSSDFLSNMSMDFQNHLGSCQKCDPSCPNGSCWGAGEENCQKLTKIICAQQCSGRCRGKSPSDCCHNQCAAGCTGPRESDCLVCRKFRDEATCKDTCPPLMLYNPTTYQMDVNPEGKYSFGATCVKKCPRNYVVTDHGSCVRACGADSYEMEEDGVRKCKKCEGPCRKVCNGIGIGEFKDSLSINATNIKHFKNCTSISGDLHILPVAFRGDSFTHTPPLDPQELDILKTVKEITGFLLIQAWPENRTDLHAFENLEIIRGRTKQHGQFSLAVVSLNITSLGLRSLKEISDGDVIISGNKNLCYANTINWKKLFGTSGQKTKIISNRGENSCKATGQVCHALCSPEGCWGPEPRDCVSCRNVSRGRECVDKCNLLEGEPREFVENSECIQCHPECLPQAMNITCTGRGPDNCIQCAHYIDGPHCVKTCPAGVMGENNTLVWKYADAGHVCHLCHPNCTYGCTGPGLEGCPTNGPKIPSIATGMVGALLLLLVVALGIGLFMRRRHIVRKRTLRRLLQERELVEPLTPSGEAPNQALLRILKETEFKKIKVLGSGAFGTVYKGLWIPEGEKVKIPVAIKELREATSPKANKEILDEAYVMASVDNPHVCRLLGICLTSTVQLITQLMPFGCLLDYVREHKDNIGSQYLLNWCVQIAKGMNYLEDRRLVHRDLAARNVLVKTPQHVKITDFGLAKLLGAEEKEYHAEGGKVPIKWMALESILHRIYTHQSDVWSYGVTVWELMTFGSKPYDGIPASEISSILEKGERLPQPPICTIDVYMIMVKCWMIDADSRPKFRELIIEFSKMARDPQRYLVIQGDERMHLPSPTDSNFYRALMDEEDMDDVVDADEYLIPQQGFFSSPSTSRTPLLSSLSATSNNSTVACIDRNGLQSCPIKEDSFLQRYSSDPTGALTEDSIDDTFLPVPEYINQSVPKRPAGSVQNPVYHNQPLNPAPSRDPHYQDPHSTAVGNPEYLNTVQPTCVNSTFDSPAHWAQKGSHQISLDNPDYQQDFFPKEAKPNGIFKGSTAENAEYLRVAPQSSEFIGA
Excerpt: A cell line of murine origin dependent on interleukin-3 (IL-3) which was genetically modified to express functional human EGF-R was used here. The proliferation of these cells known as F/L-HERc can therefore be stimulated either by murine IL-3 or by EGF (cf. von Rüden, T. et al. in EMBO J. 7, 2749-2756 (1988) and Pierce, J. H. et al. in Science 239. 628-631 (1988)).
The starting material used for the F/L-HERc cells was the cell line FDC-PI, the production of which has been described by Dexter, T. M. et al, in J. Exp. Med. 152, 1036-1047 (1980). alternatively, however, other growth-factor-dependent cells may also be used (cf. for example Pierce, J. H. et al. in Science 239, 628-631 (1988), Shibuya, H. et al. in Cell 70, 57-67 (1992) and alexander, W. S. et al. in EMBO J. 10, 3683-3691 (1991)). For expressing the human EGF-R cDNA (cf. Ullrich, A. et al. in Nature 309, 418-425 (1984)) recombinant retroviruses were used as described by von Rüden, T. et al., EMBO J. 7, 2749-2756 (1988), except that the retroviral vector LXSN (cf. Miller, A. D. et al. in BioTechniques 1, 980-990 (1989)) was used for the expression of the EGF-R cDNA and the line GP+E86 (cf, Markowitz, D, et al. in J. Virol. 62, 1120-1124 (1988)) was used as the packaging cell.
The test was performed as follows: • F/L-HERC cells were cultivated in RPMI/1640 medium (BioWhittaker), supplemented with 10% foetal calf serum (FCS, Boehringer Mannheim). 2 mM glutamine (BioWhittaker), standard antibiotics and 20 ng/ml of human EGF (Promega), at 37° C. and 5% CO2. In order to investigate the inhibitory activity of the compounds according to the invention, 1.5×10^4 cells per well were cultivated in triplicate in 96-well plates in the above medium ([…]), the cell proliferation being stimulated with either EGF (20 ng/ml) or murine IL-3. The IL-3 used was obtained from culture supernatants of the cell line X63/0 mIL-3 (cf. Karasuyama, 4. et al. in Eur. J. Immunol. 18, 97-104 (19881). The compounds according to the invention were dissolved in 100% dimethylsulphoxide (DMSO) and added to the cultures in various dilutions, the maximum DMSO concentration being 1%. The cultures were incubated for 48 hours at 37° C.
In order to determine the inhibitory activity of the compounds according to the invention the relative cell number was measured in O.D. units using the Cell Titer 96™ AQueous Non-Radioactive Cell Proliferation Assay (Promega). The relative cell number was calculated as a percentage of the control (F/LHERc cells without inhibitor) and the concentration of active substance which inhibits the proliferation of the cells by 50% (IC50) was derived therefrom.

Compound | melting point | IC50 [1]
CCOC(=O)CN(C)CC=CC(=O)Nc1cc2c(Nc3cccc(C)c3)ncnc2cc1OC [Example 5, 4-[(3-methylphenyl)amino]-6-[(4-{N-[(ethoxycarbonyl)methyl]-N-methylamino}-1-oxo-2-buten-1-yl)amino]-7-methoxy-quinazoline] | 110 to 114 °C | 
COc1cc2ncnc(Nc3cccc(Br)c3)c2cc1NC(=O)C=CCN(C)CC(OC)OC [5(8), 4-[(3-bromophenyl)amino]-6-({4-[N-(2,2-dimethoxyethyl)-N-methylamino]-1-oxo-2-buten-1-yl}amino)-7-methoxy-quinazoline] |  | 1.8 nM
O=C(C=CCN1CCOC(=O)C1)Nc1cc2c(Nc3ccc(F)c(Cl)c3)ncnc2cc1OCC1CC1 [5(25), 4-[(3-chloro-4-fluorophenyl)amino]-6-{[4-(2-oxo-morpholin-4-yl)-1-oxo-2-buten-1-yl]amino}-7-cyclopropylmethoxy-quinazoline] |  | 74 nM
CCOC(=O)CN(C)CC=CC(=O)Nc1cc2c(N[C@H](C)c3ccccc3)ncnc2cc1OC [5(2), (R)-4-[(1-phenylethyl)amino]-6-[(4-(N-[(ethoxycarbonyl)methyl]-N-methylamino}-1-oxo-2-buten-1-yl)amino]-7-methoxy-quinazoline] |  | 9 nM
CCOP(=O)(CN(C)CC=CC(=O)Nc1cc2c(Nc3cccc(Br)c3)ncnc2cc1OC)OCC [2(4), 4-[(3-bromophenyl)amino]-6-[(4-{N-[(diethoxyphosphoryl)methyl]-N-methylamino}-1-oxo-2-buten-1-yl)amino]-7-methoxy-quinazoline] |  | 6.7 nM
CCOC(=O)CN1CCN(CC=CC(=O)Nc2cc3c(Nc4ccc(F)c(Cl)c4)ncnc3cc2OCC2CC2)CC1 [5(18)] |  | 7.4 nM
C=CC(=O)Nc1cc2c(Nc3cccc(Br)c3)ncnc2cc1OCCCN1CCN(CP(=O)(OCC)OCC)CC1 [1(10), 4-[(3-bromophenyl)amino]-7-(3-{4-[(diethoxyphosphoryl)-methyl]-piperazin-1-yl}propyloxy)-6-[(vinylcarbonyl)amino]-quinazoline] |  | 21 nM
CCOC1CN(CC=CC(=O)Nc2cc3c(Nc4cccc(Br)c4)ncnc3cc2OC)CC(OCC)O1 (stereo not shown) [Example 7, 4-[(3-bromophenyl)amino]-6-{[4-(2,6-diethoxy-morpholin-4-yl)-1-oxo-2-buten-1-yl]amino}-7-methoxy-quinazoline] | 133 to 138 °C | 
CCOC(=O)CN(C)CCCNC(=O)C=CC(=O)Nc1ccc2ncnc(Nc3cccc(Br)c3)c2c1 [Example 3, 4-[(3-Bromophenyl)amino]-6-{[4-(3-{N-[(ethoxycarbonyl)methyl]-N-methylamino)propylamino)-1,4-dioxo-2-buten-1-yl]amino}-quinazoline] | 199 °C | 
C=CC(=O)Nc1cc2c(Nc3cccc(Br)c3)ncnc2cc1OCCCN1CCN(CCCC(=O)OCC)CC1 [1(4), 4-[(3-bromophenyl)amino]-7-(3-{4-[3-(ethoxycarbonyl)propyl]-piperazin-1-yl}propyloxy)-6-[(vinylcarbonyl)amino]-quinazoline] |  | 15 nM
CCOC(=O)C1CN(C(C)=O)CCN1CC=CC(=O)Nc1cc2c(Nc3ccc(F)c(Cl)c3)ncnc2cc1OCC1CC1 (stereo not shown) [Example 18, 4-[(3-Chloro-4-fluoro-phenyl)amino]-6-({4-[2-(ethoxycarbonyl)-4-(methylcarbonyl)-piperazin-1-yl]-1-oxo-2-buten-1-yl}amino)-7-cyclopropylmethoxy-quinazoline] | 152 to 156 °C | 
C=CC(=O)Nc1cc2c(Nc3cccc(Br)c3)ncnc2cc1OCCCN(C)CC(=O)OCC [1(13), 4-[(3-bromophenyl)amino]-7-(3-{N-[(ethoxycarbonyl)methyl]-N-methylamino)propyloxy)-6-[(vinylcarbonyl)amino]-quinazoline] |  | 8.7 nM
O=C(C=CCN1CCN(CC(=O)OCc2ccccc2)CC1)Nc1cc2c(Nc3ccc(F)c(Cl)c3)ncnc2cc1OCC1CC1 [Example 12, 4-[(3-Chloro-4-fluoro-phenyl)amino]-6-[(4-{4-[(benzyloxycarbonyl)methyl]-piperazin-1-yl)-1-oxo-2-buten-1-yl}amino]-7-cyclopropylmethoxy-quinazoline] | 174 °C | 
CCOC(=O)CCN(CC=CC(=O)Nc1cc2c(Nc3ccc(F)c(Cl)c3)ncnc2cc1OCC1CC1)CC(=O)OCC [5(22)] |  | 58 nM

The next lines start with the values.

melting point | IC50 [1] | Compound
 | 18 nM | CCOC(=O)CN(C)CC=CC(=O)Nc1ccc2ncc(C#N)c(Nc3cccc(Br)c3)c2c1 [5(12), 4-[(3-bromophenyl)amino]-3-cyano-6-[(4-{N-[(ethoxycarbonyl)methyl]-N-methylamino}-1-oxo-2-buten-1-yl)amino]-quinoline]
140 to 142 °C |  | CC1(C)CN(CC=CC(=O)Nc2cc3c(Nc4ccc(F)c(Cl)c4)ncnc3cc2OCC2CC2)CC(=O)O1 [Example 10, 4-[(3-chloro-4-fluorophenyl)amino]-6-{[4-(2,2-dimethyl-6-oxo-morpholin-4-yl)-1-oxo-2-buten-1-yl]amino}-7-cyclopropylmethoxy-quinazoline]
 | 109 nM | CCOC(=O)CN(CC=CC(=O)Nc1cc2c(Nc3ccc(F)c(Cl)c3)ncnc2cc1OCC1CC1)CCSC(C)=O [8(1), 4-[(3-chloro-4-fluorophenyl)amino]-6-[(4-(N-[(ethoxycarbonyl)methyl]-N-[2-(acetylsulphanyl)ethyl]amino)-1-oxo-2-buten-1-yl)amino]-7-cyclopropylmethoxy-quinazoline]
140 °C (dec.) |  | C=CC(=O)Nc1cc2c(Nc3cccc(Br)c3)ncnc2cc1OCCCN1CCN(CC(=O)O)CC1 [Example 6, 4-[(3-Bromophenyl)amino]-7-{3-[4-(carboxymethyl)-piperazin-1-yl]propyloxy}-6-[(vinylcarbonyl)amino]-quinazoline]
170 to 173 °C |  | CCOC(=O)C1CN(S(C)(=O)=O)CCN1CC=CC(=O)Nc1cc2c(Nc3ccc(F)c(Cl)c3)ncnc2cc1OCC1CC1 (stereo not shown) [Example 15, 4-[(3-Chloro-4-fluoro-phenyl)amino]-6-({4-[2-(ethoxycarbonyl)-4-(methylsulfonyl)-piperazin-1-yl]-1-oxo-2-buten-1-yl)amino)-7-cyclopropylmethoxy-quinazoline]
 | 1.8 nM | CCOC1CN(CC=CC(=O)Nc2cc3c(Nc4cccc(Br)c4)ncnc3cc2OC)CCO1 (stereo not shown) [5(10), 4-[(3-bromophenyl)amino]-6-([4-(2-ethoxy-morpholin-4-yl)-1-oxo-2-buten-1-yl]amino)-7-methoxy-quinazoline]
 | 1.9 nM | CCOC(=O)CN1CCN(CC=CC(=O)Nc2cc3c(Nc4ccc(F)c(Cl)c4)ncnc3cc2OC2CCC2)CC1 [5(29), 4-[(3-chloro-4-fluorophenyl)amino]-6-[(4-{4-[(ethoxycarbonyl)methyl]-piperazin-1-yl)-1-oxo-2-buten-1-yl}amino]-7-cyclobutyloxy-quinazoline]
 | 3 nM | COC(=O)[C@@H]1CCCN1CC=CC(=O)Nc1cc2c(Nc3ccc(F)c(Cl)c3)ncnc2cc1OCC1CC1 [5(36)]
165 to 167 °C |  | CCOC(=O)CN1CCN(C(C)(C)C=CC(=O)Nc2cc3c(Nc4ccc(F)c(Cl)c4)ncnc3cc2OCC2CC2)CC1 [Example 17, 4-[(3-Chloro-4-fluoro-phenyl)amino]-6-[(4,4-dimethyl-4-{4-[(ethoxycarbonyl)methyl]-piperazin-1-yl)-1-oxo-2-buten-1-yl)amino]-7-cyclopropylmethoxy-quinazoline]
183 to 185 °C |  | CCOC(=O)CCN1CCN(CC=CC(=O)Nc2cc3c(Nc4ccc(F)c(Cl)c4)ncnc3cc2OCC2CC2)CC1 [Example 16, 4-[(3-Chloro-4-fluoro-phenyl)amino]-6-[(4-{4-[2-(ethoxycarbonyl)-ethyl]-piperazin-1-yl}-1-oxo-2-buten-1-yl)amino]-7-cyclopropylmethoxy-quinazoline]
 | 15 nM | C=CC(=O)Nc1cc2c(Nc3cccc(Br)c3)ncnc2cc1OC1CCN(CC(=O)OCC)CC1 [1(6), 4-[(3-bromophenyl)amino]-7-((1-[(ethoxycarbonyl)methyl]-piperidin-4-yl)oxy)-6-[(vinylcarbonyl)amino]-quinazoline]
